Measured values taken from patent publication US20250009745A1, “CDK INHIBITOR” (SHANGHAI QILU PHARMACEUTICAL RESEARCH AND DEVELOPMENT …, priority 2021, published 2025).
Like-named read-outs stand apart in the source and are kept apart here.

Tests used:
Test in all cases: CDK enzymology experiment in vitro, capillary mobility shift assay (MSA)
Type in all cases: biochemical
CDK6 = molecular target: T1, CDK6 (Homo sapiens, UniProt Q00534)
T1 construct: purchased Carna Company

CDK1 = molecular target: T2, CDK1 (Homo sapiens, UniProt P06493); conditions: read-out: CDK1 (nM) inhibitory IC50
T2 construct: purchased Carna Company
Outline: (§1)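 Recombinant kinases tested against peptide substrates in 1× kinase buffer, with compound added as a 100-fold DMSO stock. Top concentration 1, 10 or 30 μM, 3-fold dilutions over 10 points, in duplicate. Substrate conversion read by Caliper EZ Reader, normalised to no-enzyme and no-compound controls, and IC50 fitted with a variable-slope log(inhibitor)–response model.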

CDK4 = molecular target: T3, CDK4 (Homo sapiens, UniProt P11802); conditions: read-out: CDK4 (nM) inhibitory IC50
T3 construct: purchased Carna Company
Outline: as §1

CDK7 = molecular target: T4, CDK7 (Homo sapiens, UniProt P50613); conditions: read-out: CDK7 (nM) inhibitory IC50
T4 construct: purchased Carna Company
Outline: as §1

CDK9 = molecular target: T5, CDK9 (Homo sapiens, UniProt P50750); conditions: read-out: CDK9 (nM) inhibitory IC50
T5 construct: purchased Carna Company
Outline: as §1

CDK2 = molecular target: T6, CDK2 (Homo sapiens, UniProt P24941); conditions: read-out: CDK2 (nM) inhibitory IC50
T6 construct: purchased Carna Company
Outline: as §1

[1] = read-out: CDK6 (nM) inhibitory IC50

T3 sequence (P11802 whole entry): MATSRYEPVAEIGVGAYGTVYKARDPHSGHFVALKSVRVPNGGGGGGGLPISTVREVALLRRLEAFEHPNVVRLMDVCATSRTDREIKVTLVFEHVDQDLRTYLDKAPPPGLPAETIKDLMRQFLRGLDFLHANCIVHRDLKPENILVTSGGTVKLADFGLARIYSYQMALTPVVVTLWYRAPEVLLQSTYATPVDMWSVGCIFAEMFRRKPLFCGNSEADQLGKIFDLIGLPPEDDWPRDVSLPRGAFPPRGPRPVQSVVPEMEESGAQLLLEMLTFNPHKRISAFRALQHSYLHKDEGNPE
T3 sequence (P30281 whole entry partner): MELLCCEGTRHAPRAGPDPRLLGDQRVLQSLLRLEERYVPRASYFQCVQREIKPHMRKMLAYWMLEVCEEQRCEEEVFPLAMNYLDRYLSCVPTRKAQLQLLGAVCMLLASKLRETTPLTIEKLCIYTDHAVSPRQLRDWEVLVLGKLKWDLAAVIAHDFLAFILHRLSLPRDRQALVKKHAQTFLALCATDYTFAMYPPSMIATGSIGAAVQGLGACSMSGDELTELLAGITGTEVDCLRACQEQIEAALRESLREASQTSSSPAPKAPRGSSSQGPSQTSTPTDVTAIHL
T1 sequence (Q00534 whole entry): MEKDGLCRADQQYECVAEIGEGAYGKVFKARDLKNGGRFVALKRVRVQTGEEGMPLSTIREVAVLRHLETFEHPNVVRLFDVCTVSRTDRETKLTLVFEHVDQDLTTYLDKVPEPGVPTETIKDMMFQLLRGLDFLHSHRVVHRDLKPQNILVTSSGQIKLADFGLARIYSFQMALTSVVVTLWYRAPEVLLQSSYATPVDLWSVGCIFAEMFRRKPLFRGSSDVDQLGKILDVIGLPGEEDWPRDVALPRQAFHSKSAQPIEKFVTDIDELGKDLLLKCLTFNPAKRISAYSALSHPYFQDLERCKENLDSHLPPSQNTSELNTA
T1 sequence (P30281 whole entry partner): as the sequence (P30281 whole entry partner) above
T2 sequence (P06493 whole entry): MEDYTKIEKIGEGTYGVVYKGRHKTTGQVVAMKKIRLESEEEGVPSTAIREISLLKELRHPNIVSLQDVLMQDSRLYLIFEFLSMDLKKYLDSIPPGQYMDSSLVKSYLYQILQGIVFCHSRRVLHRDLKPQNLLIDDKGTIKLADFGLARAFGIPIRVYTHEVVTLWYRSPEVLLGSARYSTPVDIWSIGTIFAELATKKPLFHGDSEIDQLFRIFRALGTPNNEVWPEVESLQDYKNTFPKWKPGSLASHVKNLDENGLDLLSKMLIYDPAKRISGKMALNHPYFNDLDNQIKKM
T2 sequence (P14635 whole entry partner): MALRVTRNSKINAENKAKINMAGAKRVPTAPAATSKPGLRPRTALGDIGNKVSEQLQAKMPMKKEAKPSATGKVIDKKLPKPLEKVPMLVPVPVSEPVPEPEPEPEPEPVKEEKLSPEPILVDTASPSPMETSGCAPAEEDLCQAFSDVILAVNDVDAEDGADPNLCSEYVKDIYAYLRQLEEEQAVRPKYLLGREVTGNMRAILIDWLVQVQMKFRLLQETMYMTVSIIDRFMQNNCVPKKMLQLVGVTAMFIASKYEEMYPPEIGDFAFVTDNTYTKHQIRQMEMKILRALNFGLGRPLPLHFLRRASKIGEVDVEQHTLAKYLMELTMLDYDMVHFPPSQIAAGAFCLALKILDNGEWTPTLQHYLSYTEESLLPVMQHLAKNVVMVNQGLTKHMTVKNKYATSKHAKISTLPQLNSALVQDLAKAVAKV
T4 sequence (P50613 whole entry): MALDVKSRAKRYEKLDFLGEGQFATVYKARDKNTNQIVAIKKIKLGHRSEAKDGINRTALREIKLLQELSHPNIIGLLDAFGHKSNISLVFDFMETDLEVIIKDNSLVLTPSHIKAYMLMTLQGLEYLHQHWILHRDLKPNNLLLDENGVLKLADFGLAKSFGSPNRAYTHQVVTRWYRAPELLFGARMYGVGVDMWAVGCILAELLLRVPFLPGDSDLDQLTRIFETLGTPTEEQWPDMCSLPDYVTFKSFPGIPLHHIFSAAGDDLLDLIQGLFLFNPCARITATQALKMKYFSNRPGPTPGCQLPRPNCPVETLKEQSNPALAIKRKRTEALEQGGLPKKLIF
T4 sequence (P51946 whole entry partner): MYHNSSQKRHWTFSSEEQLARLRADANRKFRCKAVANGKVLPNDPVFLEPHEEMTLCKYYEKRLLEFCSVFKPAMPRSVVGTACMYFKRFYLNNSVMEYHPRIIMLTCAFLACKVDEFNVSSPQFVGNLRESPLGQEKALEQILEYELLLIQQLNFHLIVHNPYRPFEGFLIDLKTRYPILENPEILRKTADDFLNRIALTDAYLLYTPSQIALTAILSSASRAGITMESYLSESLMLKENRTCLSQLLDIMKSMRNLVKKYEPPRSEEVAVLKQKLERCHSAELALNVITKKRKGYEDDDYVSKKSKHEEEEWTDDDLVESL
T4 sequence (P51948 whole entry partner): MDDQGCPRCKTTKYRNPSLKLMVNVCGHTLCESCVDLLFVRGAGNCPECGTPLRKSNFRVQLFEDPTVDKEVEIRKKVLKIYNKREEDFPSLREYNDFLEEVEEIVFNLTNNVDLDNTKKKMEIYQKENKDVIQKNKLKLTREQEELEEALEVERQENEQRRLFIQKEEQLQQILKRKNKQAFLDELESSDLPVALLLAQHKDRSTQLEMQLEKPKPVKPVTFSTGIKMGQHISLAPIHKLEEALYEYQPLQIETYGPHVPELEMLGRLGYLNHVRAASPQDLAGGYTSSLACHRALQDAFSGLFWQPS
T5 sequence (P50750 whole entry): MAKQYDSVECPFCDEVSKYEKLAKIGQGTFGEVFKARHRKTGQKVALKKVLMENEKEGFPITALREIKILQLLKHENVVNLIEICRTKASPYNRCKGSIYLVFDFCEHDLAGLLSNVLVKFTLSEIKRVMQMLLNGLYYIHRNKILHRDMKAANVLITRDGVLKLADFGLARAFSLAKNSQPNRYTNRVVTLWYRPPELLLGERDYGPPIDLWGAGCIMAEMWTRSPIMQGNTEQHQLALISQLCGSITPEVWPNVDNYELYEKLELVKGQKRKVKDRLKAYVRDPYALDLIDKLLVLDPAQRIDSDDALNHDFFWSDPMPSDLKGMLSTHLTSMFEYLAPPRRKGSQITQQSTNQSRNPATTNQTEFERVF
T5 sequence (O60563 whole entry partner): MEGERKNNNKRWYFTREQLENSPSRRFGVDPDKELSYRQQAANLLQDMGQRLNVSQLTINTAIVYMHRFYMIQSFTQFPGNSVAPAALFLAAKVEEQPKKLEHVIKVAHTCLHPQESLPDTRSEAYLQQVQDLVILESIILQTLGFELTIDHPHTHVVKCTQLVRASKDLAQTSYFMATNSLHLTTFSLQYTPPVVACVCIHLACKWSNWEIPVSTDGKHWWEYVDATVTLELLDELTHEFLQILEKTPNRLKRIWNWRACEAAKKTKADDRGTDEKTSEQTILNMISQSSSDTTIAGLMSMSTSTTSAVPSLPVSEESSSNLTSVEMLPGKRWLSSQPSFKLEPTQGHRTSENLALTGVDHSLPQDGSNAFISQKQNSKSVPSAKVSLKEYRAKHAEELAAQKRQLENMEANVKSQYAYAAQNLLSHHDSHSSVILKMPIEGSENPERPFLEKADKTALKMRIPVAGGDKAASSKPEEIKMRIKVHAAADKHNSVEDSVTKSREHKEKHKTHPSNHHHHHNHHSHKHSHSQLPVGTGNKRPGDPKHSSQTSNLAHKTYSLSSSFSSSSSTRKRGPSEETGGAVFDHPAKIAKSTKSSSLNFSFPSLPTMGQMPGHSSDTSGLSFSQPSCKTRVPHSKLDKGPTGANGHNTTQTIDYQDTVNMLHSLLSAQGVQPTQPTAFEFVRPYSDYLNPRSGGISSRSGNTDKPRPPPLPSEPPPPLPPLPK

Cn1cc(-c2ccc(S(=O)(=O)N3CCC(Nc4ncc(C(F)(F)F)c(O[C@H]5CCOC5)n4)CC3)cc2)cn1 [Compound 142]
IC50 (CDK6; [1]): 0.5 to 2.5 nM
IC50 (CDK1): 0.5 to 2.5 nM
IC50 (CDK4): 0.5 to 2.5 nM
IC50 (CDK7): 2.5 to 10 nM
IC50 (CDK9): 10 to 50 nM
IC50 (CDK2): < 0.5 nM

Cn1cc(S(=O)(=O)N2CCC(Nc3ncc(C(F)(F)F)c(NC4CCCC4)n3)CC2)cn1 [Compound 32]
IC50 (CDK6; [1]): 10 to 50 nM
IC50 (CDK1): 10 to 50 nM
IC50 (CDK4): 10 to 50 nM
IC50 (CDK2): 0.5 to 2.5 nM

Cn1cc(S(=O)(=O)N2CCC(Nc3ncc(C#N)c(N[C@H]4CC[C@@H](O)C4)n3)CC2)cn1 (racemic) [Example 11]
IC50 (CDK6; [1]): 10 to 50 nM
IC50 (CDK1): 10 to 50 nM
IC50 (CDK4): 10 to 50 nM
IC50 (CDK2): 0.5 to 2.5 nM

Cn1cc(-c2ccc(S(=O)(=O)N3CCC(Nc4ncc(C#N)c(N[C@@H]5CC[C@H](O)C5)n4)CC3)cc2)cn1 (single isomer, unassigned) [Compound 87]
IC50 (CDK6; [1]): 0.5 to 2.5 nM
IC50 (CDK4): 0.5 to 2.5 nM
IC50 (CDK2): 0.5 to 2.5 nM

O=S(=O)(c1ccc(C2CCCNC2)c(F)c1)N1CCC(Nc2ncc(C(F)(F)F)c(O[C@H]3CCOC3)n2)CC1 (some centres unmarked) [Compound 193]
IC50 (CDK6; [1]): 0.5 to 2.5 nM
IC50 (CDK4): 0.5 to 2.5 nM
IC50 (CDK2): < 0.5 nM

CN1CCN(c2ccc(S(=O)(=O)N3CCC(Nc4ncc(C(F)(F)F)c(O[C@H]5CCOC5)n4)CC3)cc2)CC1 [Compound 204]
IC50 (CDK6; [1]): 0.5 to 2.5 nM
IC50 (CDK4): 0.5 to 2.5 nM
IC50 (CDK2): < 0.5 nM

O=S(=O)(c1ccc(N2CC[C@@H](O)C2)cc1)N1CCC(Nc2ncc(C(F)(F)F)c(O[C@H]3CCOC3)n2)CC1 [Compound 140]
IC50 (CDK6; [1]): 0.5 to 2.5 nM
IC50 (CDK4): 0.5 to 2.5 nM
IC50 (CDK2): 0.5 to 2.5 nM

CN(C)CCn1cc(S(=O)(=O)N2CCC(Nc3ncc(C(F)(F)F)c(O[C@H]4CCOC4)n3)CC2)cn1 [Compound 157]
IC50 (CDK6; [1]): 10 to 50 nM
IC50 (CDK4): 2.5 to 10 nM
IC50 (CDK2): < 0.5 nM

Nc1ccc(S(=O)(=O)N2CCC(Nc3ncc(C(F)(F)F)c(O[C@H]4CCOC4)n3)CC2)cn1 [Compound 123]
IC50 (CDK6; [1]): 10 to 50 nM
IC50 (CDK4): 2.5 to 10 nM
IC50 (CDK2): < 0.5 nM

O=S(=O)(c1ccc(N2C3CNCC2C3)nc1)N1CCC(Nc2ncc(C(F)(F)F)c(O[C@H]3CCOC3)n2)CC1 [Compound 189]
IC50 (CDK6; [1]): 0.5 to 2.5 nM
IC50 (CDK4): 0.5 to 2.5 nM
IC50 (CDK2): < 0.5 nM

Cc1nnc(-c2ccc(S(=O)(=O)N3CCC(Nc4ncc(C(F)(F)F)c(O[C@H]5CCOC5)n4)CC3)cc2)o1 [Compound 161]
IC50 (CDK6; [1]): 0.5 to 2.5 nM
IC50 (CDK4): 0.5 to 2.5 nM
IC50 (CDK2): < 0.5 nM

O=S(=O)(c1ccc(N2C3CCC2CNC3)cc1)N1CCC(Nc2ncc(C(F)(F)F)c(O[C@H]3CCOC3)n2)CC1 [Compound 195]
IC50 (CDK6; [1]): 0.5 to 2.5 nM
IC50 (CDK4): 0.5 to 2.5 nM
IC50 (CDK2): < 0.5 nM

O=S(=O)(c1ccc(C23CCNCC2C3)cc1)N1CCC(Nc2ncc(C(F)(F)F)c(O[C@H]3CCOC3)n2)CC1 (some centres unmarked) [Compound 159]
IC50 (CDK6; [1]): 0.5 to 2.5 nM
IC50 (CDK4): 0.5 to 2.5 nM
IC50 (CDK2): 0.5 to 2.5 nM

Cn1cc(S(=O)(=O)N2CCC(Nc3ncc(C#N)c(OC4CCCC4)n3)CC2)cn1 [Example 6, 4-(Cyclopentyloxy)-2-((1-((1-methyl-1H-pyrazol-4-yl)sulfonyl)piperidin-4-yl)amino)pyrimidine-5-carbonitrile]
IC50 (CDK6; [1]): 0.5 to 2.5 nM
IC50 (CDK4): 2.5 to 10 nM
IC50 (CDK2): < 0.5 nM

O=S(=O)(c1ccc(N2CC3CCC(C2)N3)cc1)N1CCC(Nc2ncc(C(F)(F)F)c(O[C@H]3CCOC3)n2)CC1 [Compound 181]
IC50 (CDK6): 0.5 to 2.5 nM
IC50 (CDK4): 0.5 to 2.5 nM
IC50 (CDK2): < 0.5 nM

Cn1cc(-c2ccc(S(=O)(=O)N3CCC(Nc4ncc(C#N)c(N[C@H]5CC[C@@H](O)C5)n4)CC3)cc2)cn1 (relative stereo) [Compound 62]
IC50 (CDK6; [1]): 0.5 to 2.5 nM
IC50 (CDK4): 0.5 to 2.5 nM
IC50 (CDK2): 0.5 to 2.5 nM

Cn1cc(S(=O)(=O)N2CCC(Nc3ncc([N+](=O)[O-])c(NC4CCCC4)n3)CC2)cn1 [Compound 84]
IC50 (CDK6; [1]): 0.5 to 2.5 nM
IC50 (CDK4): 2.5 to 10 nM
IC50 (CDK2): 10 to 50 nM

O=S(=O)(c1ccc(Br)cc1)N1CCC(Nc2ncc(C(F)(F)F)c(C=C3CCCC3)n2)CC1 [Compound 200]
IC50 (CDK4): 100 to 1000 nM
IC50 (CDK7): 50 to 100 nM
IC50 (CDK2): 10 to 50 nM
